The values that follow come from patent publication US10653651B2, “Kit for treating cancer with low molecular weight components of aurin tricarboxylic acid complex” (Aurin Biotech Inc., priority 2014, dated 2020).

As usually defined, the IC50 is the midpoint of a concentration-inhibition curve.

In assay [1] the test system is human bone osteosarcoma MNNG cells. Briefly: Lactic dehydrogenase release from MNNG cells. It counts as cell-based. Conditions: n=4, read-out: IC50, lactate dehydrogenase release from MNNG cells. Here is the method: Experiment 4 was designed to confirm apoptotic cell death of U251 cells induced by ATA, AQA, AHA, and ATAC by measuring release of lactic dehydrogenase into the cell medium. For serum lactate dehydrogenase determination, reaction supernatants ([…]) were pipetted into the wells of 96-well plates, followed by the addition of […] lactate solution (36 mg/mL in PBS) and […] INT (iodonitrotetrazolium chloride, 2-(4-iodophenyl)-3-(4-nitrophenyl)-5-phenyl-2H-tetrazolium chloride) solution (2 mg/mL in PBS). The enzymatic reaction was started by addition of […] of NAD^+/diaphorase solution (3 mg/mL NAD^+; 2.3 mg solid/mL diaphorase). After 1 h, optical densities were measured with a microplate reader using a 490 nm filter. The amount of LDH released was expressed as a percentage of the value obtained in comparative cells where cells were 100% lysed by 1% Triton X-100.
Experiment 22 was designed to determine if apoptotic death of human bone osteosarcoma MNNG cells was induced by ATA, AQA, AHA, and ATAC as determined by the release of lactic dehydrogenase into the cell medium. The protocol was identical to that used in Experiment 19(d) except that human bone osteosarcoma MNNG cells were used.

The subject of the next assay is U251 cells. Put plainly: DNA laddering (apoptosis) in U251 cells. Conditions: 10 μM, 1 day, agarose gel. It is filed as cell-based, human. The procedure:
(§1) For determination of DNA laddering, which is indicative of DNA disintegration, cells were precipitated by centrifugation, washed, and lysed with […] Tris-HCl, 5 mM EDTA, and 3% Triton-X-100. The lysates were incubated at 37° C. for 1 h and then centrifuged at 12,000g for 10 min. They were treated with phenol/chloroform/isoamylalcohol (25:24:1) and chloroform/isoamylalcohol (24:1) twice each, and precipitated with 0.6 volume isopropyl alcohol and 0.1 volume 3 M sodium actate at −20° C. for 30 min. The precipitates were centrifuged at 12,000 g for 20 min, washed with 70% ethanol and dissolved with TE buffer containing 2 μg/mL bovine RNase. DNAs were electrophoresed in 10 μg/mL ethidium bromide containing 2% w/v agarose gel.

The test system of another assay is A549 cells. Briefly: DNA laddering (apoptosis) in A549 cells. It counts as cell-based, human. The settings on record: 10 μM, 1 day, agarose gel. The procedure: as §1
The protocol was identical to that used in Experiment 7 except A549 cells were used.

The test system of assay [2] is Factor H. Put plainly: Western blot of Factor H expression in BxPC-3 cells. It is filed as cell-based, human. Conditions: 10 μM, 1 day, cell extract. The procedure: (§2) Experiment 2 was designed to determine the effect of ATA, AQA, and AHA on the expression and release of Factor H and VEGF by U251 cells. Cells were grown in DMEM for 24 h at 37° C., after which ATA, AQA, or AHA was added to the medium at a final concentration of 10 μM and incubation carried out for a further 24 h. The medium was drawn off, and the cells washed with PBS. Lysis buffer was then added to the cells. Forty microliters of the cell lysate, or the supernatant media, were loaded onto 12% polyacrylamide gels and separated under non-reducing conditions (70 V, 3-6 h). Following SDS-PAGE, proteins were transferred to a PVDF membrane (Bio-RadTM, CA) at 30 mA for 2 h. The membranes were blocked with 5% milk in PBS-T (80 mM Na2HPO4, 20 mM NaH2PO4, 100 mM NaCl, 0.1% Tween 20, pH 7.4) for 1 h, and incubated overnight at 4° C. with primary antibodies for Factor H (CytotechTM, goat 1/1000) and for VEGF (MilliporeTM, rabbit 1/2000). The membranes were then washed 3 times with PBST. They were then treated with an appropriate horseradish peroxidase (HRP)-conjugated secondary antibody for 3 h at room temperature. The secondary antibodies were anti-rabbit IgG (P0448, DAKOTM, Mississauga, Ontario, CA, 1/2,000) and anti-goat IgG (A[…], MilliporeTM, Billerica, Ma, 1/3,000). […]

The subject of the next assay is BxPC-3 cells. Put plainly: DNA laddering (apoptosis) in BxPC-3 cells. It counts as cell-based, human. Conditions: 10 μM, 1 day, agarose gel. Here is the method:
as §1

For the next assay, the system named is VEGF. Briefly: Western blot of VEGF expression and release by U251 cells. It is filed as cell-based, human. Conditions: 10 μM, 1 day; for expression of vascular endothelial growth factor (VEGF) in U251 cells: cell extract; for release of VEGF into the extracellular milieu by U251 cells: supernatant. The procedure: Experiment 2 was designed to determine the effect of ATA, AQA, and AHA on the expression and release of Factor H and VEGF by U251 cells. Cells were grown in DMEM for 24 h at 37° C., after which ATA, AQA, or AHA was added to the medium at a final concentration of 10 μM and incubation carried out for a further 24 h. The medium was drawn off, and the cells washed with PBS. Lysis buffer was then added to the cells. Forty microliters of the cell lysate, or the supernatant media, were loaded onto 12% polyacrylamide gels and separated under non-reducing conditions (70 V, 3-6 h). Following SDS-PAGE, proteins were transferred to a PVDF membrane (Bio-RadTM, CA) at 30 mA for 2 h. The membranes were blocked with 5% milk in PBS-T (80 mM Na2HPO4, 20 mM NaH2PO4, 100 mM NaCl, 0.1% Tween 20, pH 7.4) for 1 h, and incubated overnight at 4° C. with primary antibodies for Factor H (CytotechTM, goat 1/1000) and for VEGF (MilliporeTM, rabbit 1/2000). The membranes were then washed 3 times with PBST. They were then treated with an appropriate horseradish peroxidase (HRP)-conjugated secondary antibody for 3 h at room temperature. The secondary antibodies were anti-rabbit IgG (P0448, DAKOTM, Mississauga, Ontario, CA, 1/2,000) and anti-goat IgG (A[…], MilliporeTM, Billerica, Ma, 1/3,000). The bands were visualized with an enhanced chemiluminescence system and exposure to photographic film (Hyperfilm ECLTM, AmershamTM Pharmacia Biotech, Little Chalfont, UK). For reprobing of membranes with an alternative antibody, the membranes were treated with 10 mL of stripping buffer (3 mL of 1 M Tris-HCl pH 6.7, 10 mL of 10% SDS, 347 μL of 14 M mercaptoethanol, and 36.5 mL deionized water) at 60° C. for 1 h. The membrane was then placed on a shaking incubator for 30 min to clear it of all bound antibodies. The stripped membrane was then treated with a different primary antibody as previously described.
(In western blotting, separated proteins are transferred to a membrane and probed.)

For assay [3], the system named is Factor H. Put plainly: Western blot of Factor H expression in U251 cells. It counts as cell-based, human. The settings on record: 10 μM, 1 day, cell extract. The procedure:
as §2

Where two headings read alike, the source gives them in different places.

As for `O=C(O)C1=CC(=C(c2ccc(O)c(C(=O)O)c2)c2ccc(O)c(C(=O)O)c2)C=CC1=O` [ATA, aurin tricarboxylic acid], the concentration for half-maximal inhibition (IC50) in assay [1] (Homo sapiens) amounted to 6.5 µM.

Regarding aurin hexacarboxylic acid [AHA], the “DNA fragmentation (180 bp laddering) in U251 cells” value in the assay on U251 cells is “induced DNA fragmentation”. Also, the “DNA fragmentation (180 bp laddering) in A549 cells” value with A549 cells is recorded as “induced DNA fragmentation”. Further, the “expression of Factor H in BxPC-3 cells” value with Factor H [2] was “reducing expression”. The “DNA fragmentation (180 bp laddering) in BxPC-3 cells” value in the assay on BxPC-3 cells is listed as “induced DNA fragmentation”. The IC50 in assay [1] was 6.6 µM. Moreover, in the assay with VEGF, the “expression of vascular endothelial growth factor (VEGF) in U251 cells” value is given as “reducing expression” and the “release of VEGF into the extracellular milieu by U251 cells” value is reported as “reducing release”. Besides, the “expression of Factor H in U251 cells” value in the assay with Factor H [3] is on record as “reducing expression”.

Consider aurin quadracarboxylic acid [AQA], for which the “DNA fragmentation (180 bp laddering) in U251 cells” value in the assay on U251 cells is listed as “induced DNA fragmentation”. Moreover, the “DNA fragmentation (180 bp laddering) in A549 cells” value in the assay on A549 cells was “induced DNA fragmentation”. Also, the “expression of Factor H in BxPC-3 cells” value in the assay with Factor H [2] is recorded as “reducing expression”. Also, the “DNA fragmentation (180 bp laddering) in BxPC-3 cells” value with BxPC-3 cells was “induced DNA fragmentation”. Further, in assay [1], the IC50 came to 6.4 µM. Moreover, in the assay on VEGF, the “expression of vascular endothelial growth factor (VEGF) in U251 cells” value was “reducing expression” and the “release of VEGF into the extracellular milieu by U251 cells” value is “reducing release”. In addition, in the assay with Factor H [3], the “expression of Factor H in U251 cells” value is “reducing expression”.
